{
  "source": "patent US20140242093A1",
  "about": "“METHODS AND COMPOSITIONS FOR MODULATING THE INNATE IMMUNE RESPONSE AND/OR MYOGENESIS IN A MAMMALIAN SUBJECT” (FRED HUTCHINSON CANCER RESEARCH CENTER, priority 2011, published 2014)",
  "key": {"[1]": {"test_system": "cultured control skeletal muscle", "test": "RT-PCR validation of microarray gene targets", "type": "cell-based, human", "conditions": "FIG. 1", "experimental": "RNA was collected from cultured control skeletal muscle either transduced with a DUX4-fl expressing lentivirus (+) or not transduced (−). RPL13A was used as an internal standard. Total RNA was treated with DNase using TURBO DNA-free kit (Ambion) according to manufacturer's protocol. One μg of DNase-treated RNA was reverse transcribed to first strand cDNA with SuperScript III and anchored oligo dT (Invitrogen) at 52° C. for 1 h. Residual RNA was digested with RNase H at 37° C. for 20 min. cDNA was used in various PCR and real-time PCR reactions with primers listed below.\nThe primers shown below were designed to span exon-exon junctions where possible. Primers from select genes were also used in real-time PCR reactions to examine endogenous expression of targets in FSHD versus control samples described separately."}, "[2]": {"test_system": "human rhabdomyosarcoma cell line RD", "test": "Luciferase reporter assay with DUX4 binding sites", "type": "cell-based", "experimental": "The DUX4 binding site in the ZSCAN4 pGL3-promoter construct was either reversed in orientation (as shown in FIG. 3D) or moved downstream of the reporter gene (as shown in FIG. 3E). […] Transfections and luciferase assays were done as in main methods. Data are given as the averages±SD of triplicates.\nTransient DNA transfections of RD cells were performed using SuperFect (Qiagen) according to manufacturer specifications. Briefly, 3×10^5 cells were seeded per 35 mm plate the day prior to transfection. […] Cells were lysed 24 h post-transfection in Passive Lysis Buffer (Promega). Luciferase activities were quantified using reagents from the Dual-Luciferase Reporter Assay System (Promega) following manufacturer's instructions. Light emission was measured using BioTek Synergy2 luminometer. Luciferase data are given as the averages±SD of at least triplicates."}, "Human myoblasts": {"test_system": "Human myoblasts", "test": "Expression array of the innate immune response to lentiviral infection versus uninfected cells", "type": "cell-based", "experimental": "RNA was harvested from the lenti-viral infected cells and uninfected control cells at 24 hours after infection."}},
  "data": [
    {"substance": "DUX4-fl: full-length DUX4 protein (SEQ ID NO:110), expressed from lentiviral or pCS2 vectors or in vitro translated", "values": [
      {"measurement": "number of DUX4-fl regulated genes with differential expression validated by RT-PCR", "setting": "[1]", "value": 15, "unit": "genes"},
      {"measurement": "luciferase reporter with DUX4 binding sites from LTRs at a MaLR THE1D element", "setting": "[2]", "value": "activated transcription of a luciferase reporter"},
      {"measurement": "luciferase expression from pGL3-promoter reporter with 31 bp DUX4 binding site", "setting": "[2]; TRIM48 or ZSCAN4 site, co-transfection in RD cells", "value": "significantly induced luciferase expression"},
      {"measurement": "induction of viral RNA sensors LGP2 (DHX58), IFIH1 (MDA5), DDX58 (RIG-1)", "setting": "Human myoblasts", "value": "suppresses the induction of the three primary sensors of viral RNA"},
      {"measurement": "number of the 341 genes induced within 50% of the level of induction by lenti-GFP", "setting": "Human myoblasts", "value": 24, "unit": "genes"},
      {"measurement": "share of lentivirus-induced genes whose induction is suppressed", "setting": "Human myoblasts; 317 out of 341", "value": 93, "unit": "%"},
      {"measurement": "DEFB103A and DEFB103B transcripts", "setting": "Human myoblasts; expression array", "value": "activated"},
      {"measurement": "CCL2 expression ratio vs GFP (.fc)", "setting": "Human myoblasts; gene CCL2 NM_002982.3, vs lenti-GFP, 24 hours after infection", "value": "−2.68", "unit": "log2 fold change"},
      {"measurement": "CCL2 expression ratio vs NoLenti (.fc)", "setting": "Human myoblasts; gene CCL2 NM_002982.3, vs uninfected, 24 hours after infection", "value": 0.01, "unit": "log2 fold change"},
      {"measurement": "CCL5 expression ratio vs GFP (.fc)", "setting": "Human myoblasts; gene CCL5 NM_002985.2, vs lenti-GFP, 24 hours after infection", "value": "−2.53", "unit": "log2 fold change"},
      {"measurement": "CCL5 expression ratio vs NoLenti (.fc)", "setting": "Human myoblasts; gene CCL5 NM_002985.2, vs uninfected, 24 hours after infection", "value": 0.22, "unit": "log2 fold change"},
      {"measurement": "CXCL1 expression ratio vs GFP (.fc)", "setting": "Human myoblasts; gene CXCL1 NM_001511.1, vs lenti-GFP, 24 hours after infection", "value": "−3.52", "unit": "log2 fold change"},
      {"measurement": "CXCL1 expression ratio vs NoLenti (.fc)", "setting": "Human myoblasts; gene CXCL1 NM_001511.1, vs uninfected, 24 hours after infection", "value": "−0.04", "unit": "log2 fold change"},
      {"measurement": "CXCL2 expression ratio vs GFP (.fc)", "setting": "Human myoblasts; gene CXCL2 NM_002089.3, vs lenti-GFP, 24 hours after infection", "value": "−1.34", "unit": "log2 fold change"},
      {"measurement": "CXCL2 expression ratio vs NoLenti (.fc)", "setting": "Human myoblasts; gene CXCL2 NM_002089.3, vs uninfected, 24 hours after infection", "value": "−0.04", "unit": "log2 fold change"},
      {"measurement": "CXCL5 expression ratio vs GFP (.fc)", "setting": "Human myoblasts; gene CXCL5 NM_002994.3, vs lenti-GFP, 24 hours after infection", "value": "−2.47", "unit": "log2 fold change"},
      {"measurement": "CXCL5 expression ratio vs NoLenti (.fc)", "setting": "Human myoblasts; gene CXCL5 NM_002994.3, vs uninfected, 24 hours after infection", "value": "−0.37", "unit": "log2 fold change"},
      {"measurement": "CXCL6 expression ratio vs GFP (.fc)", "setting": "Human myoblasts; gene CXCL6 NM_002993.2, vs lenti-GFP, 24 hours after infection", "value": "−1.99", "unit": "log2 fold change"},
      {"measurement": "CXCL6 expression ratio vs NoLenti (.fc)", "setting": "Human myoblasts; gene CXCL6 NM_002993.2, vs uninfected, 24 hours after infection", "value": "−0.10", "unit": "log2 fold change"},
      {"measurement": "DDX58 expression ratio vs GFP (.fc)", "setting": "Human myoblasts; gene DDX58 NM_014314.3, vs lenti-GFP, 24 hours after infection", "value": "−2.47", "unit": "log2 fold change"},
      {"measurement": "DDX58 expression ratio vs NoLenti (.fc)", "setting": "Human myoblasts; gene DDX58 NM_014314.3, vs uninfected, 24 hours after infection", "value": "−0.18", "unit": "log2 fold change"},
      {"measurement": "DHX58 (LGP2) expression ratio vs GFP (.fc)", "setting": "Human myoblasts; gene DHX58 NM_024119.2, vs lenti-GFP, 24 hours after infection", "value": "−2.84", "unit": "log2 fold change"},
      {"measurement": "DHX58 (LGP2) expression ratio vs NoLenti (.fc)", "setting": "Human myoblasts; gene DHX58 NM_024119.2, vs uninfected, 24 hours after infection", "value": "−0.17", "unit": "log2 fold change"},
      {"measurement": "IFI6 expression ratio vs GFP (.fc)", "setting": "Human myoblasts; gene IFI6 NM_022872.2, vs lenti-GFP, 24 hours after infection", "value": "−4.24", "unit": "log2 fold change"},
      {"measurement": "IFI6 expression ratio vs NoLenti (.fc)", "setting": "Human myoblasts; gene IFI6 NM_022872.2, vs uninfected, 24 hours after infection", "value": 0.82, "unit": "log2 fold change"},
      {"measurement": "IFI16 expression ratio vs GFP (.fc)", "setting": "Human myoblasts; gene IFI16 NM_005531.1, vs lenti-GFP, 24 hours after infection", "value": "−2.01", "unit": "log2 fold change"},
      {"measurement": "IFI16 expression ratio vs NoLenti (.fc)", "setting": "Human myoblasts; gene IFI16 NM_005531.1, vs uninfected, 24 hours after infection", "value": "−0.14", "unit": "log2 fold change"},
      {"measurement": "IFI27 expression ratio vs GFP (.fc)", "setting": "Human myoblasts; gene IFI27 NM_005532.3, vs lenti-GFP, 24 hours after infection", "value": "−6.53", "unit": "log2 fold change"},
      {"measurement": "IFI27 expression ratio vs NoLenti (.fc)", "setting": "Human myoblasts; gene IFI27 NM_005532.3, vs uninfected, 24 hours after infection", "value": 0.92, "unit": "log2 fold change"},
      {"measurement": "IFI35 expression ratio vs GFP (.fc)", "setting": "Human myoblasts; gene IFI35 NM_005533.2, vs lenti-GFP, 24 hours after infection", "value": "−3.85", "unit": "log2 fold change"},
      {"measurement": "IFI35 expression ratio vs NoLenti (.fc)", "setting": "Human myoblasts; gene IFI35 NM_005533.2, vs uninfected, 24 hours after infection", "value": "−0.32", "unit": "log2 fold change"},
      {"measurement": "IFI44L expression ratio vs GFP (.fc)", "setting": "Human myoblasts; gene IFI44L NM_006820.1, vs lenti-GFP, 24 hours after infection", "value": "−5.12", "unit": "log2 fold change"},
      {"measurement": "IFI44L expression ratio vs NoLenti (.fc)", "setting": "Human myoblasts; gene IFI44L NM_006820.1, vs uninfected, 24 hours after infection", "value": 0.74, "unit": "log2 fold change"},
      {"measurement": "IFI44 expression ratio vs GFP (.fc)", "setting": "Human myoblasts; gene IFI44 NM_006417.3, vs lenti-GFP, 24 hours after infection", "value": "−2.42", "unit": "log2 fold change"},
      {"measurement": "IFI44 expression ratio vs NoLenti (.fc)", "setting": "Human myoblasts; gene IFI44 NM_006417.3, vs uninfected, 24 hours after infection", "value": 0.90, "unit": "log2 fold change"},
      {"measurement": "IFIH1 (MDA5) expression ratio vs GFP (.fc)", "setting": "Human myoblasts; gene IFIH1 NM_022168.2, vs lenti-GFP, 24 hours after infection", "value": "−3.70", "unit": "log2 fold change"},
      {"measurement": "IFIH1 (MDA5) expression ratio vs NoLenti (.fc)", "setting": "Human myoblasts; gene IFIH1 NM_022168.2, vs uninfected, 24 hours after infection", "value": 0.25, "unit": "log2 fold change"},
      {"measurement": "IFIT1 expression ratio vs GFP (.fc)", "setting": "Human myoblasts; gene IFIT1 NM_001548.3, vs lenti-GFP, 24 hours after infection", "value": "−4.38", "unit": "log2 fold change"},
      {"measurement": "IFIT1 expression ratio vs NoLenti (.fc)", "setting": "Human myoblasts; gene IFIT1 NM_001548.3, vs uninfected, 24 hours after infection", "value": 0.43, "unit": "log2 fold change"},
      {"measurement": "IFIT3 expression ratio vs GFP (.fc)", "setting": "Human myoblasts; gene IFIT3 NM_001549.2, vs lenti-GFP, 24 hours after infection", "value": "−3.86", "unit": "log2 fold change"},
      {"measurement": "IFIT3 expression ratio vs NoLenti (.fc)", "setting": "Human myoblasts; gene IFIT3 NM_001549.2, vs uninfected, 24 hours after infection", "value": 0.04, "unit": "log2 fold change"},
      {"measurement": "IFIT5 expression ratio vs GFP (.fc)", "setting": "Human myoblasts; gene IFIT5 NM_012420.1, vs lenti-GFP, 24 hours after infection", "value": "−1.65", "unit": "log2 fold change"},
      {"measurement": "IFIT5 expression ratio vs NoLenti (.fc)", "setting": "Human myoblasts; gene IFIT5 NM_012420.1, vs uninfected, 24 hours after infection", "value": "−0.36", "unit": "log2 fold change"},
      {"measurement": "IFITM1 expression ratio vs GFP (.fc)", "setting": "Human myoblasts; gene IFITM1 NM_003641.3, vs lenti-GFP, 24 hours after infection", "value": "−6.12", "unit": "log2 fold change"},
      {"measurement": "IFITM1 expression ratio vs NoLenti (.fc)", "setting": "Human myoblasts; gene IFITM1 NM_003641.3, vs uninfected, 24 hours after infection", "value": 0.73, "unit": "log2 fold change"},
      {"measurement": "IFITM2 expression ratio vs GFP (.fc)", "setting": "Human myoblasts; gene IFITM2 NM_006435.2, vs lenti-GFP, 24 hours after infection", "value": "−1.71", "unit": "log2 fold change"},
      {"measurement": "IFITM2 expression ratio vs NoLenti (.fc)", "setting": "Human myoblasts; gene IFITM2 NM_006435.2, vs uninfected, 24 hours after infection", "value": "−0.46", "unit": "log2 fold change"},
      {"measurement": "IFITM3 expression ratio vs GFP (.fc)", "setting": "Human myoblasts; gene IFITM3 NM_021034.2, vs lenti-GFP, 24 hours after infection", "value": "−1.95", "unit": "log2 fold change"}
    ]}
  ]
}
